Where two headings read alike, the source gives them in different places.
What was measured:
Assay in all cases: Protein kinase activity in the presence of compound
Assay type in all cases: biochemical
[1] = target: CDK2/cyclin A (Homo sapiens, UniProt P24941); conditions: read-out: Residual activity CDK2/cyclin A
Method: (§1) The action of the compound of formula (14) was tested on a selection of 29 different protein kinases. The activity of these enzymes was measured in the presence of 10 μM of compound, according to the general methodology described by Bain et al. (2003) Biochem. J. 371:199-204 and Davies et al. (2000) Biochem. J. 351:95-105.
(§2) Residual enzyme activity of protein kinases in the presence of inhibitor compounds at the concentration given (expressed as a percentage of the activity measured in the absence of inhibitors). The results obtained for gossypol and gossypolone are given by way of comparison.

[2] = target: T1, CHK1 (Homo sapiens, UniProt O14757); conditions: read-out: Residual activity CHK1
T1 sequence (O14757 1-476): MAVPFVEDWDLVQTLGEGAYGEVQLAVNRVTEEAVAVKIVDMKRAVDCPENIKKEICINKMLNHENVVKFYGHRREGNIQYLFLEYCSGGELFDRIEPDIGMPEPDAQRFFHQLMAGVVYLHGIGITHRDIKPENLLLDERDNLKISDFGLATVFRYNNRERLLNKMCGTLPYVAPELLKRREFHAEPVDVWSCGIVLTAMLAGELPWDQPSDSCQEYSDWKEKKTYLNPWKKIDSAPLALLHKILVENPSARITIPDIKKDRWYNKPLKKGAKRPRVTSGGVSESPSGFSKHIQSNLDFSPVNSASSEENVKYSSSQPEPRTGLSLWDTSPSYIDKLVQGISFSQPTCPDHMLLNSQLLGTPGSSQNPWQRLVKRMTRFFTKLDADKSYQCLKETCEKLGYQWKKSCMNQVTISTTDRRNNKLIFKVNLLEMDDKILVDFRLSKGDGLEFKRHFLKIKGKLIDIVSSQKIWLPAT
Method: as §1, §2

[3] = system: CK1; conditions: 10 μM compound; percentage of the activity measured in the absence of inhibitors
Method: as §1, §2

[4] = target: CK2 (Homo sapiens, UniProt P68400); conditions: read-out: Residual activity CK2
Chain of CK2 (P68400 whole entry): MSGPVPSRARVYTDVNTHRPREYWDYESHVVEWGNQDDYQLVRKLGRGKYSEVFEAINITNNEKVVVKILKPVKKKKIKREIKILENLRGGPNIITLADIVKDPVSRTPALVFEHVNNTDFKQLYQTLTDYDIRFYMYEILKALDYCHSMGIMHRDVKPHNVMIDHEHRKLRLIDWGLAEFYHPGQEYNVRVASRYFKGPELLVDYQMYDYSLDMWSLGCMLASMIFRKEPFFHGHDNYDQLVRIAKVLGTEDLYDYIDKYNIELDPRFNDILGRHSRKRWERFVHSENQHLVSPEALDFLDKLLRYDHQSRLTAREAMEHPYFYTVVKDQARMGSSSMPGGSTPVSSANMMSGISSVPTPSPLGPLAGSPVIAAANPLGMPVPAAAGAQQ
Method: as §1, §2

[5] = target: DYRK1a (Homo sapiens, UniProt Q13627); conditions: read-out: Residual activity DYRK1a
Method: as §1, §2

[6] = target: GSK3b (Homo sapiens, UniProt P49841); conditions: read-out: Residual activity GSK3b
Chain of GSK3b (P49841 whole entry, species assumed): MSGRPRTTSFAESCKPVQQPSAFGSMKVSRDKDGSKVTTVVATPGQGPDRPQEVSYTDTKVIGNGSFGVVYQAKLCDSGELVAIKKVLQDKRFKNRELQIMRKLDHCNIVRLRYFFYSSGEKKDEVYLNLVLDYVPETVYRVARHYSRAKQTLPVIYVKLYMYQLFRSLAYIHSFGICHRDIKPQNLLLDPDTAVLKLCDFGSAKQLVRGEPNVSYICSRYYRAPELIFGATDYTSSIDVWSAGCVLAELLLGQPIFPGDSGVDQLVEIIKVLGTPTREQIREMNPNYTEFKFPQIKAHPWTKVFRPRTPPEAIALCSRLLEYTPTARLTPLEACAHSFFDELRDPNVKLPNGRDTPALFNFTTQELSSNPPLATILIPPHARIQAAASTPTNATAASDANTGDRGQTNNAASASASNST
Method: as §1, §2

[7] = target: MAPK2/ERK2 (Homo sapiens, UniProt P28482); conditions: read-out: Residual activity MAPK2/ERK2
Chain of MAPK2/ERK2 (P28482 whole entry): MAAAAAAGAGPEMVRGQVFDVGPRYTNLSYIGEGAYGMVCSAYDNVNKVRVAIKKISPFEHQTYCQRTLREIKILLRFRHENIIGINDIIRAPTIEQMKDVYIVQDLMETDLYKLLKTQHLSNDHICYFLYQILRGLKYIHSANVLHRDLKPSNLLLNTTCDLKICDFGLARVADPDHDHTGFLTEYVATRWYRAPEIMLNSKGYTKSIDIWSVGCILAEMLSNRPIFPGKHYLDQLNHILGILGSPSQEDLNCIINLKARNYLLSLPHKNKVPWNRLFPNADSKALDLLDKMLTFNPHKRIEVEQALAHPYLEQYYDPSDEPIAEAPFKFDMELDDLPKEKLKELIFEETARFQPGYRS
Method: as §1, §2

[8] = target: MAPKAP-K1a (Homo sapiens, UniProt Q15418); conditions: read-out: Residual activity MAPKAP-K1a
Chain of MAPKAP-K1a (Q15418 whole entry, species assumed): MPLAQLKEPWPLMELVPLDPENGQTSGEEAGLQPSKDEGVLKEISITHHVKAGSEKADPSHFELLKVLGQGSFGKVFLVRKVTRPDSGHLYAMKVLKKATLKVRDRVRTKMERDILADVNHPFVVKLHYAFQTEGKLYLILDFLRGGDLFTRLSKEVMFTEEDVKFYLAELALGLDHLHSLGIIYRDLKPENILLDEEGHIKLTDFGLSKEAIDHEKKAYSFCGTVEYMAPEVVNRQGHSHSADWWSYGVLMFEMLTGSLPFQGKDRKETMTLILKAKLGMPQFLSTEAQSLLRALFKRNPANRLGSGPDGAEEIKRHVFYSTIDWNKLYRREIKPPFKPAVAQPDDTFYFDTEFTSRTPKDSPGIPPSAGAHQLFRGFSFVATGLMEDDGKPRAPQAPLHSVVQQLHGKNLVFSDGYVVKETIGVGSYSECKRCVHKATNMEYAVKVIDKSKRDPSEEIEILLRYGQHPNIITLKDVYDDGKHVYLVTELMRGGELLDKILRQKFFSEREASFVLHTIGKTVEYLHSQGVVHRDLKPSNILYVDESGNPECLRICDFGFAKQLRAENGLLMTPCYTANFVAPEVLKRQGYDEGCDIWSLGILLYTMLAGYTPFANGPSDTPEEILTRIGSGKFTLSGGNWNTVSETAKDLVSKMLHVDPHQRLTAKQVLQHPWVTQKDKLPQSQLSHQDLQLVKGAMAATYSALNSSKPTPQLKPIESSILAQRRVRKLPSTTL
Method: as §1, §2

[9] = target: T2, PDK1 (Homo sapiens, UniProt O15530); conditions: read-out: Residual activity PDK1
T2 sequence (O15530 1-556): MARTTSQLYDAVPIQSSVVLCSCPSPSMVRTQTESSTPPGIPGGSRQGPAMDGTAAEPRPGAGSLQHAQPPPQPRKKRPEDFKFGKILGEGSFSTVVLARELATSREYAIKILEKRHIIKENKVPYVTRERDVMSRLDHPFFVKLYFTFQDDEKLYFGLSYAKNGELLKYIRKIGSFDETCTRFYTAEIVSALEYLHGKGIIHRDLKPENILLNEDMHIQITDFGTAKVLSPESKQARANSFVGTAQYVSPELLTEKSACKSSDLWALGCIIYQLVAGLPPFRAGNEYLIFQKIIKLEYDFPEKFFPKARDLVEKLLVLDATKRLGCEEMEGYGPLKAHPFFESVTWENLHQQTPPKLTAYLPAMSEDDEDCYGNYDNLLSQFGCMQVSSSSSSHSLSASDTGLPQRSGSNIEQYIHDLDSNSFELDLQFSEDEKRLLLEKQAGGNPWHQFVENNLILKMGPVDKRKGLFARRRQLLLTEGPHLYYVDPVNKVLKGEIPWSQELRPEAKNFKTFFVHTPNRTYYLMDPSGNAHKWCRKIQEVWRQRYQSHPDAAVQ
Method: as §1, §2

[10] = system: PKB?ph; conditions: 10 μM compound; percentage of the activity measured in the absence of inhibitors
Method: as §1, §2

[11] = target: PKCa (Homo sapiens, UniProt P17252); conditions: read-out: Residual activity PKCa
Method: as §1, §2

[12] = target: SAPK2b/p38β2 (Homo sapiens, UniProt Q15759); conditions: read-out: Residual activity SAPK2b/p38β2
Chain of SAPK2b/p38β2 (Q15759 whole entry): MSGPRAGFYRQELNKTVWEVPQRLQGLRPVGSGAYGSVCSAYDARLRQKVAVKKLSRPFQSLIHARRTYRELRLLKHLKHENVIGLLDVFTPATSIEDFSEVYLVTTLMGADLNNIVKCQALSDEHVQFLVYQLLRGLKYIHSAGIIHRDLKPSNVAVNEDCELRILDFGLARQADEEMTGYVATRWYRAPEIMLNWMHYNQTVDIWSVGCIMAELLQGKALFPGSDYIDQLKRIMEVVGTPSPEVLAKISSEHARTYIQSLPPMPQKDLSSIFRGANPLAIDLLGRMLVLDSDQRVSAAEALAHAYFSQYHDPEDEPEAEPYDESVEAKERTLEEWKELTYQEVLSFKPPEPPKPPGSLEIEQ
Method: as §1, §2

[13] = target: T3, SAPK3/p38g (Homo sapiens, UniProt P53778); conditions: read-out: Residual activity SAPK3/p38g
T3 sequence (P53778 1-367): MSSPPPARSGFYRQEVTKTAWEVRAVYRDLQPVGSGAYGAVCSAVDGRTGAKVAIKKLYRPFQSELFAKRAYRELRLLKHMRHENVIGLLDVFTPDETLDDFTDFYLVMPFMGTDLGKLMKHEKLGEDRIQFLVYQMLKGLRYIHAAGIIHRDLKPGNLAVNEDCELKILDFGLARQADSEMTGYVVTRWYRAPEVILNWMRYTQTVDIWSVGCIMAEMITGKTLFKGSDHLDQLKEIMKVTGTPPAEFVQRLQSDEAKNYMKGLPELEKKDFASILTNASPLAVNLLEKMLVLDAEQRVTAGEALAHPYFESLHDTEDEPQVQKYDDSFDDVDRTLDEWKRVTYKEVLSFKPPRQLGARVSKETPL
Method: as §1, §2

[14] = target: T4, SAPK4/p38d (Homo sapiens, UniProt O15264); conditions: read-out: Residual activity SAPK4/p38d
T4 sequence (O15264 1-365): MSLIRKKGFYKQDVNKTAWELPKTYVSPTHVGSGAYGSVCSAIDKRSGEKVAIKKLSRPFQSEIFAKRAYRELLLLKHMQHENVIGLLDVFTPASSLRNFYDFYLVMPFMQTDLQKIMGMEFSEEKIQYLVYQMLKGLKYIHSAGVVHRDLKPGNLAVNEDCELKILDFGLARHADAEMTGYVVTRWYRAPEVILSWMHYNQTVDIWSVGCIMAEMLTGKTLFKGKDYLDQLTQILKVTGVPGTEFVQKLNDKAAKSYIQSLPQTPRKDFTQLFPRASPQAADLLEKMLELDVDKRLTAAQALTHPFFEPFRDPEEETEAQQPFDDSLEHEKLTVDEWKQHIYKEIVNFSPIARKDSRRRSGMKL
Method: as §1, §2

[15] = system: p70 S6K; conditions: 10 μM compound; percentage of the activity measured in the absence of inhibitors
Method: as §1, §2

[16] = 10 μM compound, percentage of the activity measured in the absence of inhibitors

| SMILES | Residual activity CK1 [3] | Residual activity PKB?ph [10] | Residual activity p70 S6K [15] | remaining activity at 10 µM [1] | remaining activity at 10 µM [2] | remaining activity at 10 µM [4] | remaining activity at 10 µM [5] | remaining activity at 10 µM [6] | remaining activity at 10 µM [7] | remaining activity at 10 µM [8] | remaining activity at 10 µM [9] | remaining activity at 10 µM [11] | remaining activity at 10 µM [12] | remaining activity at 10 µM [13] | remaining activity at 10 µM [14] | further results |
| --- | --- | --- | --- | --- | --- | --- | --- | --- | --- | --- | --- | --- | --- | --- | --- | --- |
| CC1=C(C2=C(C)C(=O)c3c(c(CSCCO)c(O)c(O)c3C(C)C)C2=O)C(=O)c2c(CSCCO)c(O)c(O)c(C(C)C)c2C1=O [Compound (14), 6,7,6′,7′-tetrahydroxy-8,8′-bis-(2-hydroxy-ethylsulphanylmethyl)-5,5′-diisopropyl-3,3′-dimethyl-[2,2′]binaphthalenyl-1,4,1′,4′-tetraone] | 77% | 76% | 52% |  |  |  |  |  |  |  |  |  |  |  |  | remaining activity at 10 µM [1, 16]: 111%; remaining activity at 10 µM [2, 16]: 47%; remaining activity at 10 µM [4, 16]: 85%; remaining activity at 10 µM [5, 16]: 16%; remaining activity at 10 µM [6, 16]: 85%; remaining activity at 10 µM [7, 16]: 58%; remaining activity at 10 µM [8, 16]: 60%; remaining activity at 10 µM [9, 16]: 65%; remaining activity at 10 µM [11, 16]: 86%; remaining activity at 10 µM [12, 16]: 113%; remaining activity at 10 µM [13, 16]: 76%; remaining activity at 10 µM [14, 16]: 85% |
| CC1=C(C2=C(C)C(=O)c3c(c(O)c(O)c(O)c3C(C)C)C2=O)C(=O)c2c(O)c(O)c(O)c(C(C)C)c2C1=O [Compound (4), 6,7,8,6′,7′,8′-hexahydroxy-5,5′-diisopropyl-3,3′-dimethyl-[2.2′]binaphthalenyl-1,4,1′,4′-tetraone] | 88% | 39% | 34% | 113% | 127% | 80% | 25% | 63% | 52% | 58% | 88% | 85% | 124% | 89% | 88% |  |
| Cc1cc2c(C(C)C)c(O)c(O)c(C=O)c2c(O)c1-c1c(C)cc2c(C(C)C)c(O)c(O)c(C=O)c2c1O [Gossypol, gossypol] | 89% | 94% | 110% | 97% | 9% | 80% | 21% | 47% | 65% | 77% | 71% | 96% | 125% | 108% | 66% |  |
| CC1=C(C2=C(C)C(=O)c3c(c(C=O)c(O)c(O)c3C(C)C)C2=O)C(=O)c2c(C=O)c(O)c(O)c(C(C)C)c2C1=O [Gossypolone, gossypolone, reference compound] | 64% | 53% | 35% | 90% | 24% | 79% | 27% | 43% | 46% | 55% | 51% | 78% | 102% | 83% | 75% |  |
